Common to all, as to assay: biochemical
Format in all cases: binding

The target in assay [1] is T1, panel of 442 kinases (Homo sapiens, UniProt Q6P3R8).
T1 construct: purchased Ambit Biosciences (scanMAXX KINOMEscan)
T1 sequence (Q6P3R8 1-708): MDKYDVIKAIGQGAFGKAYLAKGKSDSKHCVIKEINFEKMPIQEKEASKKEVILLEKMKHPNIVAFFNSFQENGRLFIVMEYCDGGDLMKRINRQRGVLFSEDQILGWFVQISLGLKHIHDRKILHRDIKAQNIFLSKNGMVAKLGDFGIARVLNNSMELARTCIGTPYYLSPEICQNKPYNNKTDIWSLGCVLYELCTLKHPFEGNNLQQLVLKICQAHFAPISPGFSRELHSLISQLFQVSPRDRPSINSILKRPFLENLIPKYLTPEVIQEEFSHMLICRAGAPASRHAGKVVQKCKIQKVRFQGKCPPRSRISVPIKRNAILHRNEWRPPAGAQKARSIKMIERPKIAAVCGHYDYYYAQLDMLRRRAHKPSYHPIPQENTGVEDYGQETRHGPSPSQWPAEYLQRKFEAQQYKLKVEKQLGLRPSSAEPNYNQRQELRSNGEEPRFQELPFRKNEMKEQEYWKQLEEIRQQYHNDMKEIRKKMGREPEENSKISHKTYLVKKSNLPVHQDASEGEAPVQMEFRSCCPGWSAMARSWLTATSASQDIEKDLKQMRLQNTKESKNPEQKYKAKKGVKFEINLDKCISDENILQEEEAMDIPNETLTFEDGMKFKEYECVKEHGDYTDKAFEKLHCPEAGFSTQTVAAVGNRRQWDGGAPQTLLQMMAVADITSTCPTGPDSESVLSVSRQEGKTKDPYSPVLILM
The settings on record: kinase NEK5; for remaining activity at 1 µM: read-out: % of control at 1 µM.

The target of assay [2] is T2, panel of 442 kinases (Homo sapiens, UniProt Q08345).
T2 construct: purchased Ambit Biosciences (scanMAXX KINOMEscan)
The settings on record: DDR1; for remaining activity at 1 µM: read-out: % of control at 1 µM.

In assay [3] the target is T3, panel of 442 kinases (Homo sapiens, UniProt Q08881).
T3 construct: purchased Ambit Biosciences (scanMAXX KINOMEscan)
T3 sequence (Q08881 1-620): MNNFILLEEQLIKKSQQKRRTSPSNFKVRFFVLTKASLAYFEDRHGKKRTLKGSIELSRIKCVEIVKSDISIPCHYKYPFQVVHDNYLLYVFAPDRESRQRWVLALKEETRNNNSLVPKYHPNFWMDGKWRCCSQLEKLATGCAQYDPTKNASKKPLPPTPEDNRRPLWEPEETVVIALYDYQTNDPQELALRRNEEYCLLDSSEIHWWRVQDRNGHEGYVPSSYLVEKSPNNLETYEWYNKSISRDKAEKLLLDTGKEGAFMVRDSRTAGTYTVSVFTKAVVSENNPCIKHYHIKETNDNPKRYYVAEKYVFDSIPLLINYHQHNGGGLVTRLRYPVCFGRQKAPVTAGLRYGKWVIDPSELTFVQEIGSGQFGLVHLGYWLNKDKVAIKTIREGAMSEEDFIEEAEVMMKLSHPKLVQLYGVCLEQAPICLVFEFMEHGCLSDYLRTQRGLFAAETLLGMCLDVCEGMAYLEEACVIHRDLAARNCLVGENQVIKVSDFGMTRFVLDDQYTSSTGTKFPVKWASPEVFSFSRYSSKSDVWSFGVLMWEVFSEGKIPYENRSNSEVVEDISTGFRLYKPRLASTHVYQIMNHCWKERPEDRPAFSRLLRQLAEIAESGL
The settings on record: kinase ITK; for remaining activity at 1 µM: read-out: % of control at 1 µM.

For assay [4], the target named is T4, panel of 442 kinases (Homo sapiens, UniProt O14936).
T4 construct: purchased Ambit Biosciences (scanMAXX KINOMEscan)
T4 sequence (O14936 1-926): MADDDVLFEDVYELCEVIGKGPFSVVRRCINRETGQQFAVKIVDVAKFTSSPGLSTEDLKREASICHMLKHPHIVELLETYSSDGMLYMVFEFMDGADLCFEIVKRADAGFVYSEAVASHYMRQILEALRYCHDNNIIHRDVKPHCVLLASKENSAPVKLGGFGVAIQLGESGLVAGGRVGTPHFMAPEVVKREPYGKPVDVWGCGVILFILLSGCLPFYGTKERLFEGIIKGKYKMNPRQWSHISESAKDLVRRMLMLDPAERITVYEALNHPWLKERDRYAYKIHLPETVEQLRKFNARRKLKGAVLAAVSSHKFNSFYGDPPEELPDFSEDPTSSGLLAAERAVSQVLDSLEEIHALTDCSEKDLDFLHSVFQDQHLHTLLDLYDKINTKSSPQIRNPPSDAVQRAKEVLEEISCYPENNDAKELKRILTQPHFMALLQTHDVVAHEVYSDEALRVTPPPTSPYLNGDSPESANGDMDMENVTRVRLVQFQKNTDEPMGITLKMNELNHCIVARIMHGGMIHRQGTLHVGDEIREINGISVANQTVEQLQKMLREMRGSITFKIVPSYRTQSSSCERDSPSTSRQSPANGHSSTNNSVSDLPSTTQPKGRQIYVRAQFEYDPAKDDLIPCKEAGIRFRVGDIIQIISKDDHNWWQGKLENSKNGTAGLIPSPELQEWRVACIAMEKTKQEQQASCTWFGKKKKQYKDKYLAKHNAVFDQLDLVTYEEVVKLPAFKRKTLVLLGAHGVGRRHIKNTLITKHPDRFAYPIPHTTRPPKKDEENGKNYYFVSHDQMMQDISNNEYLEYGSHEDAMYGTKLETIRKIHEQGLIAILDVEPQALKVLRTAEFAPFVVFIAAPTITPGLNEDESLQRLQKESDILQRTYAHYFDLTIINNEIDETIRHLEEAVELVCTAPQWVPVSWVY
The settings on record: CASK; for remaining activity at 1 µM: read-out: % of control at 1 µM.

The mark [5] stands for this setting: 10 µM, read-out: % of control at 10 µM.

T2 sequence (Q08345 19-913): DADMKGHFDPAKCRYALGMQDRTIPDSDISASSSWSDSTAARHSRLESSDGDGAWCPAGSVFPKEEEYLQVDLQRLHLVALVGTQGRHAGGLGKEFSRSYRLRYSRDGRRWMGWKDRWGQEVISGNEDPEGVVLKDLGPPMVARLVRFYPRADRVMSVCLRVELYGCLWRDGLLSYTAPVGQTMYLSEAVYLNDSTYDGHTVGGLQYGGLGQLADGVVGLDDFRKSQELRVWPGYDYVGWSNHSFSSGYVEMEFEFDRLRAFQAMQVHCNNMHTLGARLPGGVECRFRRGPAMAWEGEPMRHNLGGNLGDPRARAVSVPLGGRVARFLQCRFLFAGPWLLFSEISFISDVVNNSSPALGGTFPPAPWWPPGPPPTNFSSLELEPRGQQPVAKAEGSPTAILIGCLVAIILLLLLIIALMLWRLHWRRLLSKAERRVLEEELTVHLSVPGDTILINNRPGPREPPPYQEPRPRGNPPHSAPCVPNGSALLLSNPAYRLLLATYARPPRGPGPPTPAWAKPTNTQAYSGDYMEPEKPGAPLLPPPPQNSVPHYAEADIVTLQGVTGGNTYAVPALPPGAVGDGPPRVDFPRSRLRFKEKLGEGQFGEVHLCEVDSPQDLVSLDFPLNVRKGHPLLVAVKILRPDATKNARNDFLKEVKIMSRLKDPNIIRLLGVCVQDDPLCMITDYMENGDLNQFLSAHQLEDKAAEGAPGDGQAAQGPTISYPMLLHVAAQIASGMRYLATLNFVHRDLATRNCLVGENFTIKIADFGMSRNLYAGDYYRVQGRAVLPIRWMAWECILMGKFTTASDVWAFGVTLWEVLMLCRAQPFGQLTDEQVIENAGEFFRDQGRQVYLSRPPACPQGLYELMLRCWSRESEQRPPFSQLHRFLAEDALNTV

On to `Nc1cc(C(F)(F)F)c(-c2cc(N3CCOCC3)nc(N3CCOCC3)n2)cn1` [Buparlisib], for which the remaining activity at 1 µM is 100% at panel of 442 kinases [1], 100% at panel of 442 kinases [2], 100% on panel of 442 kinases [3] and 99% on panel of 442 kinases [4]. Besides, the remaining activity at 10 µM amounted to 88% at panel of 442 kinases [1] (setting [5]), 92% at panel of 442 kinases [2] (setting [5]), 100% on panel of 442 kinases [3] (setting [5]) and 100% at panel of 442 kinases [4] (setting [5]).
Turning to `Cn1c(=O)n(-c2ccc(C(C)(C)C#N)cc2)c2c3cc(-c4cnc5ccccc5c4)ccc3ncc21` [Dactolisib, 2-methyl-2-[4-(3-methyl-2-oxo-8-quinolin-3-yl-2,3-dihydroimidazo[4,5-c]quinolin-1-yl)-phenyl] propionitrile], the remaining activity at 1 µM at panel of 442 kinases [1] came to 62%; on panel of 442 kinases [2] it was 100%; on panel of 442 kinases [3], 91%; on panel of 442 kinases [4] it was 100%.
Regarding `FC(F)c1nc2ccccc2n1-c1nc(N2CCOCC2)nc(N2CCOCC2)n1` [ZSTK474, 2-(difluoromethyl)-1-[4,6-di(4-morpholinyl)-1,3,5-triazin-2-yl]-1H-benzimidazole], the remaining activity at 1 µM at panel of 442 kinases [1] was 89%; at panel of 442 kinases [2], 95%; on panel of 442 kinases [3], 97%; at panel of 442 kinases [4], 87%.
For `COc1ncc(-c2ccc3nccc(-c4ccnnc4)c3c2)cc1NS(=O)(=O)c1ccc(F)cc1F` [Omipalisib], the remaining activity at 1 µM at panel of 442 kinases [1] came out at 100%; on panel of 442 kinases [2] it was 100%; on panel of 442 kinases [3], 86%; on panel of 442 kinases [4] it was 75%.

Source of the values: article PMC5564600 (Oncotarget, 2017).
